Molecules are shown by their SMILES.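 Values below derive from 48-hour exposures of cells grown in 96-well plates, with endpoints linearly interpolated between the two concentrations bracketing the appropriate inhibition level. GI50: concentration for 50% inhibition of growth.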 Calls of active or inactive are those of the source. No stated cut-off is given here; in the data, active = GI50 up to about 1.1 µM and inactive = higher. Residues, ends and D or L forms follow the SMILES beside them. *: point of attachment. Cbz = O=C(OCc1ccccc1)*

Common to all, as to assay: inhibition of tumour cell growth, NCI panel, 48 h
Assay [1] relates to SNB-75.
Assay [2] concerns SNB-19.
The test system of assay [3] is SR.
For assay [4], the system named is TK-10.
The test system of assay [5] is OVCAR-5.
For assay [6], the system named is DU-145.
Assay [7] has as its system Hs-578T.
Assay [8] deals with SK-MEL-5.
Assay [9] concerns HOP-92.
The test system of assay [10] is HCT-15.
Assay [11] has as its system LOX IMVI.
Assay [12] concerns MOLT-4.
Assay [13] concerns PC-3.
The subject of assay [14] is OVCAR-4.
In assay [15] the test system is SK-OV-3.
Assay [16] deals with HL-60.
Assay [17] deals with RPMI-8226.

On to `N=C(N)c1ccc(/C=C/c2ccc(C(=N)N)cc2)cc1`, for which the GI50 was 32.1 µM (inactive) in assay [1]; > 100 µM (inactive) in assay [2]; > 100 µM (inactive) in assay [3]; 24.5 µM (inactive) in assay [4]; 81.8 µM (inactive) in [5]; > 100 µM (inactive) in [6]. The GI50 in assay [7] is 48 µM (inactive); in assay [8], 29.1 µM (inactive); in assay [9] it was > 100 µM (inactive); in [10], over 100 µM; in assay [11], > 100 µM (inactive); in assay [12], > 100 µM (inactive). The GI50 in assay [13] was 64.9 µM (inactive); in assay [14] it was > 100 µM (inactive).
For the compound `CCN(CC)CCNc1c(OC)cc(C)c2sc3ccccc3c(=O)c12`, the GI50 in assay [1] was 12.9 µM (inactive); in [2], 12.7 µM (inactive); in [3], 3.15 µM (inactive); in assay [4], 8.59 µM (inactive); in [15], 13.9 µM (inactive); in assay [16], 5.45 µM (inactive). Also, the GI50 in assay [5] is 3.72 µM (inactive); in assay [6] it was 11.9 µM (inactive); in assay [7], 7.5 µM (inactive); in assay [8], 1.91 µM (inactive); in assay [9], 16.9 µM (inactive); in assay [10], 4.06 µM. Besides, the GI50 is 1.3 µM (inactive) in [17], 2.31 µM (inactive) in assay [12], 7.71 µM (inactive) in assay [13] and 5.3 µM (inactive) in assay [14].
For `Cc1cccc(-n2c(C)nc3ccc(NC4OC(CO)C(O)C(O)C4O)cc3c2=O)c1` (stereo not drawn), the GI50 in [1] is > 100 µM (inactive); in assay [2], > 100 µM (inactive); in [3] it was 50.7 µM (inactive); in [4], > 100 µM (inactive); in [16] it was > 100 µM (inactive); in assay [5] it was > 100 µM (inactive). The GI50 was > 100 µM (inactive) in [6]; > 100 µM (inactive) in assay [7]; > 100 µM (inactive) in [8]; over 100 µM in assay [10]; > 100 µM (inactive) in [11]; > 100 µM (inactive) in assay [17]. The GI50 in assay [12], in assay [13] and in assay [14] was > 100 µM (inactive) throughout.
On to `CC(NC(=O)C(NC(=O)OCc1ccccc1)C(C)C)C(=O)NCC(=O)O` (stereo not drawn) (Cbz-Val-Ala-Gly-OH; configuration not given here), for which the GI50 in [2], in assay [3], in assay [4], in assay [15], in [5] and in assay [6] was > 100 µM (inactive) each time. The GI50 in [7] is > 100 µM (inactive); in assay [8], > 100 µM (inactive); in [9], > 100 µM (inactive); in assay [10] it was over 100 µM; in assay [17] it was > 100 µM (inactive); in assay [12], > 100 µM (inactive). The GI50 in [13] was > 100 µM (inactive).
In the case of `COc1ccc(OC)c2c1C=CC(Br)=CC2`, the GI50 in assay [2] was 0.611 µM (active); in assay [3], 0.191 µM (active); in assay [4] it was 0.292 µM (active); in assay [15], 0.0582 µM (active); in [6], 0.975 µM (active); in assay [7], 0.224 µM (active). The GI50 was 0.216 µM (active) in assay [8]; 0.148 µM (active) in assay [9]; 0.201 µM in assay [10]; 0.158 µM (active) in [11]; 0.162 µM (active) in [17]; 0.144 µM (active) in [12]. Further, the GI50 is 0.352 µM (active) in [13] and 0.4 µM (active) in assay [14].
Turning to `CC(C)CC(C#CCCOC(=O)c1ccccc1)OC(=O)c1ccccc1` (stereo not drawn), the GI50 was 0.445 µM (active) in assay [1]; > 10 µM (inactive) in [2]; > 10 µM (inactive) in [3]; > 10 µM (inactive) in assay [4]; > 10 µM (inactive) in assay [15]; > 10 µM (inactive) in assay [16]. For the same compound, the GI50 in [5] is > 10 µM (inactive); in assay [6], > 10 µM (inactive); in assay [7], > 10 µM (inactive); in [8] it was > 10 µM (inactive); in assay [9], > 10 µM (inactive); in assay [10] it was over 10 µM. Besides, the GI50 in [11], in [12] and in [13] was > 10 µM (inactive) throughout.
For the compound `COC(=O)c1ccc2c(c1)S/C(=C/c1ccc3ccc4cccc5ccc1c3c45)S2`, the GI50 is 17.3 µM (inactive) in [1]; 50.6 µM (inactive) in assay [2]; 98.4 µM (inactive) in [4]; > 100 µM (inactive) in assay [15]; 20.7 µM (inactive) in [16]; > 100 µM (inactive) in [5]. Further, the GI50 in [6] is > 100 µM (inactive); in [7] it was 37.9 µM (inactive); in assay [8] it was > 100 µM (inactive); in assay [9], 43.5 µM (inactive); in [10] it was 28.1 µM; in [11], > 100 µM (inactive). Besides, the GI50 in assay [17] is 38.3 µM (inactive); in [12], > 100 µM (inactive); in assay [13], 48.1 µM (inactive); in [14], 41.4 µM (inactive).
As to `C[C@H](CCC(=O)NCCS(=O)(=O)O)[C@H]1CC[C@H]2[C@@H]3[C@H](O)C[C@@H]4C[C@H](O)CC[C@]4(C)[C@H]3CC[C@]12C`, the GI50 in [2], in [3], in [4], in [15], in assay [16] and in assay [5] was > 100 µM (inactive) in each case. In addition, the GI50 in assay [6] was > 100 µM (inactive); in assay [7] it was > 100 µM (inactive); in assay [8] it was > 100 µM (inactive); in assay [9], > 100 µM (inactive); in assay [10] it was over 100 µM; in assay [11], > 100 µM (inactive). In addition, the GI50 in assay [17], in assay [12], in assay [13] and in assay [14] was > 100 µM (inactive) each time.
`O=S(=O)(O)c1cccc2c(/N=N/c3c(O)ccc4ccccc34)cccc12`: the GI50 in assay [1], in assay [2], in assay [3], in assay [4], in assay [15] and in assay [5] was > 100 µM (inactive) throughout. The GI50 in assay [6] is > 100 µM (inactive); in [7], > 100 µM (inactive); in assay [8], 46.2 µM (inactive); in [9], > 100 µM (inactive); in assay [10], over 100 µM; in assay [11] it was > 100 µM (inactive). In addition, the GI50 in assay [17], in assay [12], in assay [13] and in [14] was > 100 µM (inactive) in each case.
For `O=C(c1ccccc1)N1CCC(Nc2cccnc2)O1` (stereo not drawn), the GI50 in [2], in [3], in assay [4], in assay [15], in [16] and in assay [5] was > 100 µM (inactive) throughout. For the same compound, the GI50 was > 100 µM (inactive) in assay [6]; 7.64 µM (inactive) in assay [7]; > 100 µM (inactive) in assay [8]; > 100 µM (inactive) in [9]; over 100 µM in [10]; > 100 µM (inactive) in [12]. For the same compound, in [13], the GI50 is > 100 µM (inactive).

The values above are taken from ChEMBL document CHEMBL1201862, “PubChem BioAssay data set” (2004).
